The values below come from patent publication US20260102359A1, “COMBINATION TREATMENT OF DERMAL AND TRANSDERMAL FIBROTIC DISEASES, DISORDERS AND ASSOCIATED PAIN AND INFLAMMATION” (ERESINA, LLC, priority 2022, published 2026).

The test system of this series is hDMFa myofibroblast cells.

Counter-ions that a name gives are not always drawn.

Turning to `N.S=C(S)N1CCCC1` [Cmpd 811, Pyrrolidinedithiocarbamate ammonium], the “Compound Myofibroblast Cytotoxicity Activity” value was “++”.
On to `CCC(C)(C)c1ccc(CC(C)CN2C[C@@H](C)O[C@@H](C)C2)cc1` (stereo partly drawn) [Cmpd 113, Amorolfine HCl], for which the “Compound Myofibroblast Cytotoxicity Activity” value is “+++”.
Regarding `CN(C)CCN(Cc1ccc(Cl)cc1)c1ccccn1` [Cmpd 250, Chloropyramine hydrochloride], the “Compound Myofibroblast Cytotoxicity Activity” value is listed as “++”.
In the case of `COc1ccc([C@@H]2CC(=O)c3c(O)cc(O)cc3O2)cc1O` [Cmpd 503, Hesperitin], the “Compound Myofibroblast Cytotoxicity Activity” value is recorded as “++”.
Take `O=C(CO)[C@@H](O)[C@H](O)[C@H](O)CO` [Cmpd 305, D-(−)-Fructose]: the “Compound Myofibroblast Cytotoxicity Activity” value is listed as “++”.
For `CC(=O)c1ccccc1` [Cmpd 82, Acetophenone], the “Compound Myofibroblast Cytotoxicity Activity” value is on record as “++”.
With `Clc1ccc(C(Cn2ccnc2)OCc2c(Cl)cccc2Cl)c(Cl)c1` (stereo not drawn) [Cmpd 535, Isoconazole nitrate] the entry was “+++”; with `CC(=O)N[C@@H](CS)C(=O)O` [Cmpd 695, N-Acetyl-L-cysteine], “+”; with `CC1CC(OC(=O)C(O)c2ccccc2)CC(C)(C)C1` (stereo not drawn) [Cmpd 301, Cyclandelate], “+++”.
For the molecule `CC1Cc2ccccc2N1NC(=O)c1ccc(Cl)c(S(N)(=O)=O)c1` (stereo not drawn) [Cmpd 527, Indapamide], the “Compound Myofibroblast Cytotoxicity Activity” value was “+++”.
Under `CC(Cc1ccc(O)c(O)c1)C(C)Cc1ccc(O)c(O)c1` (stereo not drawn) [Cmpd 722, Nordihydroguaiaretic acid] stands “+++”.
As for `COC(=O)C1=C(C)NC(C)=C(C(=O)OC(C)C)C1c1cccc2nonc12` (stereo not drawn) [Cmpd 544, Isradipine (Dynacirc)], the “Compound Myofibroblast Cytotoxicity Activity” value is “++”.
With `Cc1ccc(O)cc1` [Cmpd 762, p-Cresol] the entry was “++”.
On to `COc1ccc(C(CN(C)C)C2(O)CCCCC2)cc1` (stereo not drawn) [Cmpd 998, Venlafaxine], for which the “Compound Myofibroblast Cytotoxicity Activity” value is on record as “++”.
Under `C[C@H]1[C@H](OC(=O)CCC(=O)O)O[C@@H]2O[C@@]3(C)CC[C@H]4[C@H](C)CC[C@@H]1[C@@]24OO3` [Cmpd 132, Artesunate] stands “+++”.
As for `COCCCN1CCC(NC(=O)c2cc(Cl)c(N)c3c2OCC3)CC1` [Cmpd 806, Prucalopride], the “Compound Myofibroblast Cytotoxicity Activity” value is “+++”.
Under `CC1=CC[C@H]2C[C@@H]1C2(C)C` [Cmpd 21, (1S)-(-)-α-Pinene] stands “++”; under `CCOC(=O)C1=C(C)NC(C)=C(C(=O)OC)C1c1cccc([N+](=O)[O-])c1` (stereo not drawn) [Cmpd 719, Nitrendipine], “+++”.
With `C[C@H](Oc1cc(-c2cnn(C3CCNCC3)c2)cnc1N)c1c(Cl)ccc(F)c1Cl` [Cmpd 29, (S)-Crizotinib] the entry was “++++”; with `CC(C)(C)NCC(O)COc1cccc2c1CCC(=O)N2` (stereo not drawn) [Cmpd 219, Carteolol HCl], “++”.
Turning to `C[N+](C)(C)CCOP(=O)(O)OP(=O)([O-])OC[C@H]1O[C@@H](n2ccc(N)nc2=O)[C@H](O)[C@@H]1O` [Cmpd 271, Citicoline (sodium salt)], the “Compound Myofibroblast Cytotoxicity Activity” value is “+++”.
Under Fumalic acid [Cmpd 474] stands “++”.
Regarding `Clc1ccc(COC(Cn2ccnc2)c2ccc(Cl)cc2Cl)c(Cl)c1` (stereo not drawn) [Cmpd 671, Miconazole], the “Compound Myofibroblast Cytotoxicity Activity” value is given as “+++”.
On to `CC1=CCC2CC1C2(C)C` (racemic) [Cmpd 18, (±)-α-Pinene], for which the “Compound Myofibroblast Cytotoxicity Activity” value is “++”.
Regarding `Cc1ccc(S(=O)(=O)NC(=O)NN2CCCCCC2)cc1` [Cmpd 953, Tolazamide], the “Compound Myofibroblast Cytotoxicity Activity” value is “++++”.
Under `CC(C)N(CCC(C(N)=O)(c1ccccc1)c1ccccn1)C(C)C` (stereo not drawn) [Cmpd 366, Disopyramide] stands “++”; under `CCCCCCCCCCCCCCCC(=O)OC/C=C(C)/C=C/C=C(C)/C=C/C1=C(C)CCCC1(C)C` [Cmpd 830, Retinyl (Vitamin A) Palmitate], “++”; under `O=C(O)CCCCCCCCC(=O)O.O=C(O)CCCCCCCCC(=O)O` [Cmpd 858, sebacate (decanedioate)], “++”.
With `CCCCCCCC/C=C\CCCCCCCC(=O)O` [Cmpd 733, Oleic Acid] the entry was “+++”.
For the molecule `CC(C)(C)C(=O)OCOP(=O)(COCCn1cnc2c(N)ncnc21)OCOC(=O)C(C)(C)C` [Cmpd 89, Adefovir Dipivoxil], the “Compound Myofibroblast Cytotoxicity Activity” value is “++++”.
Regarding `Clc1ccc(C(Cn2ccnc2)OCc2ccsc2Cl)c(Cl)c1` (stereo not drawn) [Cmpd 947, Tioconazole], the “Compound Myofibroblast Cytotoxicity Activity” value is “+++”.
Turning to `CC(C)(CO)C(O)C(=O)NCCCO` (racemic) [Cmpd 370, DL-Panthenol], the “Compound Myofibroblast Cytotoxicity Activity” value is listed as “+++”.
On to `OC1(c2ccc(Cl)c(C(F)(F)F)c2)CCN(CCCC(c2ccc(F)cc2)c2ccc(F)cc2)CC1` [Cmpd 765, Penfluridol], for which the “Compound Myofibroblast Cytotoxicity Activity” value is listed as “+++”.
Under `CN[C@@H]1[C@H](O)[C@H](NC)[C@H]2O[C@@]3(O)C(=O)C[C@@H](C)O[C@H]3O[C@@H]2[C@H]1O` [Cmpd 885, Spectinomycin (hydrochloride hydrate)] stands “+++”; under `C=C1CC[C@@H]2[C@](C)(CO)[C@H](O)CC[C@@]2(C)[C@@H]1/C=C/C1=CCOC1=O` [Cmpd 334, Dehydroandrographolide], “++”.
Take `CC1(COc2ccc3c(c2)ncn3-c2ccc3cccc(N4CCC(N)CC4)c3n2)COC1` [Cmpd 296, Crenolanib (CP-868596)]: the “Compound Myofibroblast Cytotoxicity Activity” value is “+++++”.
Under `Nc1nc2ncc(CNc3ccc(C(=O)N[C@@H](CCC(=O)O)C(=O)O)cc3)nc2c(=O)[nH]1` [Cmpd 467, Folic acid] stands “++”.
With `O=C1CN(/N=C/c2ccc(-c3ccc([N+](=O)[O-])cc3)o2)C(O)=N1` [Cmpd 320, Dantrolene, sodium salt] the entry was “++++”; with `CC(=O)OC(C)C[N+](C)(C)C` (stereo not drawn) [Cmpd 655, Methacholine chloride], “++”; with `Cc1cc(C2CCCCC2)n(O)c(=O)c1.NCCO` [Cmpd 259, Ciclopirox ethanolamine], “+++”.
Turning to `O=C[C@H](O)[C@@H](O)[C@H](O[C@@H]1O[C@H](CO)[C@@H](O)[C@H](O)[C@H]1O)[C@H](O)CO` [Cmpd 239, Cellobiose], the “Compound Myofibroblast Cytotoxicity Activity” value is on record as “+++”.
With `C=C1CC[C@H](O)C/C1=C/C=C1\CCC[C@]2(C)[C@@H]([C@H](C)CCCC(C)C)CC[C@@H]12` [Cmpd 1009, Vitamin D3] the entry was “+++”; with `C[n+]1ccccc1/C=N/O` [Cmpd 792, Pralidoxime Iodide], “++”; with `C[n+]1cc2c3c(ccc2c2ccc4cc5c(cc4c21)OCO5)OCO3` [Cmpd 851, Sanguinarine chloride], “++++”.
With `COc1cc2c(Oc3ccc4[nH]c(C)cc4c3F)ncnc2cc1OCCCN1CCCC1` [Cmpd 226, Cediranib (AZD217)] the entry was “++++”; with `OC1OC[C@H](O)[C@H](O)[C@H]1O` (mixture of isomers) [Cmpd 560, L-Arabinose], “++++”; with `C=C(c1ccc(C(=O)O)cc1)c1cc2c(cc1C)C(C)(C)CCC2(C)C` [Cmpd 178, Bexarotene], “++++”.
With `O=C1/C(=C2\Nc3ccc(S(=O)(=O)[O-])cc3C2=O)Nc2ccc(S(=O)(=O)[O-])cc21.[Na+].[Na+]` [Cmpd 528, Indigo carmine], the “Compound Myofibroblast Cytotoxicity Activity” value was “++”.
With `CC(C)(C)c1nc(-c2cccc(NS(=O)(=O)c3c(F)cccc3F)c2F)c(-c2ccnc(N)n2)s1.CS(=O)(=O)O` [Cmpd 311, Dabrafenib Mesylate (GSK-2118436)] the entry was “++”.
For `O=C([O-])[O-].[Li+].[Li+]` [Cmpd 595, Lithium carbonate], the “Compound Myofibroblast Cytotoxicity Activity” value was “++++”.
`CO/N=C(\C(=O)N[C@@H]1C(=O)N2C(C(=O)OC(C)OC(C)=O)=C(COC(N)=O)CS[C@H]12)c1ccco1` (stereo partly drawn) [Cmpd 238, Cefuroxime axetil]: the “Compound Myofibroblast Cytotoxicity Activity” value is given as “++”.
In the case of `C=C(C)[C@@H]1CC[C@@]2(C)[C@H]1[C@H]1CCC3[C@@]4(C)CC[C@H](O)C(C)(C)[C@@H]4CC[C@@]3(C)[C@]1(C)C[C@@H]2O` (stereo partly drawn) [Cmpd 207, Calenduladiol], the “Compound Myofibroblast Cytotoxicity Activity” value is “+”.
Consider `Clc1ccc(C(Cn2ccnc2)OCc2csc3c(Cl)cccc23)c(Cl)c1` (stereo not drawn) [Cmpd 860, Sertaconazole nitrate], for which the “Compound Myofibroblast Cytotoxicity Activity” value is recorded as “+++++”.
`C[N+](C)(C)CCOC(N)=O.[Cl-]` [Cmpd 214, Carbamoylcholine chloride]: the “Compound Myofibroblast Cytotoxicity Activity” value is listed as “++”.
On to Cilengitide [Cmpd 261], for which the “Compound Myofibroblast Cytotoxicity Activity” value is recorded as “++++”.
For `COC(=O)C1=C(C)NC(C)=C(C(=O)OCCN(C)Cc2ccccc2)C1c1cccc([N+](=O)[O-])c1` (stereo not drawn) [Cmpd 706, Nicardipine HCl], the “Compound Myofibroblast Cytotoxicity Activity” value is listed as “+++”.
Under `O=P1(NCCCl)OCCCN1CCCl` (stereo not drawn) [Cmpd 518, Ifosfamide] stands “+++”.
As to `Cc1nc(Nc2ncc(C(=O)Nc3c(C)cccc3Cl)s2)cc(N2CCN(CCO)CC2)n1` [Cmpd 327, Dasatinib hydrochloride], the “Compound Myofibroblast Cytotoxicity Activity” value is “+++”.
For the molecule `O=C([O-])CN(CCN(CC(=O)[O-])CC(=O)[O-])CC(=O)[O-].[Ca+2].[Na+].[Na+]` [Cmpd 404, edetate calcium disodium], the “Compound Myofibroblast Cytotoxicity Activity” value is given as “++”.
Under `CC(NCCC(c1ccccc1)c1ccccc1)c1ccccc1` (stereo not drawn) [Cmpd 450, Fendiline (hydrochloride)] stands “+++”.
